According to patent US20110039762A1, “TARGETED ANTIMICROBIAL MOIETIES” (C3 JIAN, INC., priority 2009, published 2011):
“Also recorded” adds a separate entry of the source. Bridge positions count the residues as written; N and C are the ends. Square brackets hold non-standard residues; d marks the D form. Ends that are not written are not given here. Peptide text beside a SMILES is read from it. I, II: the chains in the order shown. Aoc = NCCCCCCCC(=O)O

Legend:
S. mutans [1] = experiment: Post-antibiotic effect assay (growth retardation after 10 min exposure); format: cell-based, Streptococcus mutans; conditions: S. mutans monoculture, peptide 10 min, then fresh medium
Description: The activity and selectivity of MH-STAMPs after a 10 min incubation was determined by growth retardation experiments against targeted and untargeted bacteria in monocultures, as described previously (Id.). Cells from overnight cultures were diluted to ˜5×10^6 cfu/mL in MH (or TH with 1% sucrose for S. mutans), normalized by OD600 0.05-0.1 and seeded to 96-well plates. Cultures were then grown under the appropriate conditions for 2 h (3 h for S. mutans) prior to the addition of peptides for 10 min. Plates were then centrifuged at 3000×g for 5 min, the supernatants discarded, fresh medium returned (MH or TH without sucrose for S. mutans), and incubation resumed. Bacterial growth after treatment was then monitored over time by OD600.

[2] = test system: Mixed planktonic populations of P. aeruginosa, E. coli, S. epidermidis, and S. mutans; experiment: Microbial population shift assay; format: cell-based; conditions: 10 μM peptide, 24 h
Description: Peptide (10 μM) or mock-treatment (1× PBS) was then added and samples were incubated at 37° C. for 24 h under anaerobic conditions (80% N2, 15% CO2, 5% H2). […] Plates were then incubated 37° C. under aerobic conditions (TH plates were incubated anaerobically) and colonies counted after 24 h to determine survivors. […] Gram stains and direct microscopic observation (from select isolated colonies) were undertaken to confirm species identity (data not shown). The detection limit of the assay was 200 cfu/mL.

C. difficile = experiment: MIC (broth microdilution); format: cell-based, Clostridium difficile
Description: (§1) Typically, the in vitro antimicrobial activity of antimicrobial agents is tested using standard NCCLS bacterial inhibition assays, or MIC tests (see, National Committee on Clinical Laboratory Standards “Performance Standards for Antimicrobial Susceptibility Testing,” NCCLS Document M100-S5 Vol. 14, No. 16, December 1994; “Methods for dilution antimicrobial susceptibility test for bacteria that grow aerobically-Third Edition,” Approved Standard M7-A3, National Committee for Clinical Standards, Villanova, Pa.).
(§2) Briefly, ˜1×10^5 cfu/mL bacteria were diluted in TH (S. mutans), or Mueller-Hinton (MH) broth (all other organisms) and distributed to 96-well plates. Serially-diluted (2-fold) peptides were then added and the plates incubated at 37° C. for 18-24 h. […] All experiments were conducted 10 times.

S. pneumoniae [3] = experiment: Kill or inhibit growth/proliferation; morphology, biofilm and growth disruption (Tables 5, 6); format: cell-based, Streptococcus pneumoniae; set-up: key: A: Peptide aggregates; B: Less hyphal formation; Clumps; Diffuse clumps and small polyps; F: Diffuse growth; H: Thin; I: Growth inhibition; Microcolony formation; Rippled; Small polyps; Thick; W: Halo formation on top, microlonies on bottom
[4] = test system: microorganisms (e.g., bacteria, yeasts, fungi); experiment: Targeting peptide binding to target microorganisms (Table 3); conditions: preferably 1x PBS
microorganisms = experiment: Peptides having multiple activities (targeting/binding, antimicrobial, growth or phenotype altering)
Source text: In certain embodiments, peptides described herein can have multiple activities. Thus for example, a peptide can have both binding/targeting activity and antimicrobial activity. Such peptides can be used, e.g., in a chimeric construct, for any or all of these properties. Thus, for example, a peptide designated “B” in Table 8 can be used as a targeting peptide. If it is also designated G or M it can also be used for antimicrobial activity.

S. mutans [5] = format: cell-based, Streptococcus mutans; conditions: S. mutans
Description: as §1, §2

MRSA [6] = experiment: MIC (broth microdilution); format: cell-based, Methicillin-resistant Staphylococcus aureus
Description: as §1, §2

S. epidermidis [7] = format: cell-based, Staphylococcus epidermidis; conditions: S. epidermidis
Description: as §1, §2

E. coli [8] = format: cell-based, Escherichia coli; conditions: E. coli
Description: as §1, §2

S. pneumoniae [9] = experiment: MIC (broth microdilution); format: cell-based, Streptococcus pneumoniae
Description: as §1, §2

MRSA [10] = experiment: Kill or inhibit growth/proliferation; morphology, biofilm and growth disruption (Tables 5, 6); format: cell-based, Methicillin-resistant Staphylococcus aureus; set-up: key: A: Peptide aggregates; B: Less hyphal formation; Clumps; Diffuse clumps and small polyps; F: Diffuse growth; H: Thin; I: Growth inhibition; Microcolony formation; Rippled; Small polyps; Thick; W: Halo formation on top, microlonies on bottom
S. epidermidis [11] = experiment: as above; format: cell-based, Staphylococcus epidermidis; set-up: key: A: Peptide aggregates; B: Less hyphal formation; Clumps; Diffuse clumps and small polyps; F: Diffuse growth; H: Thin; I: Growth inhibition; Microcolony formation; Rippled; Small polyps; Thick; W: Halo formation on top, microlonies on bottom
S. mutans [12] = experiment: as above; format: cell-based, Streptococcus mutans; set-up: key: A: Peptide aggregates; B: Less hyphal formation; Clumps; Diffuse clumps and small polyps; F: Diffuse growth; H: Thin; I: Growth inhibition; Microcolony formation; Rippled; Small polyps; Thick; W: Halo formation on top, microlonies on bottom
C. albicans = experiment: as above; format: cell-based, Candida albicans; set-up: key: A: Peptide aggregates; B: Less hyphal formation; Clumps; Diffuse clumps and small polyps; F: Diffuse growth; H: Thin; I: Growth inhibition; Microcolony formation; Rippled; Small polyps; Thick; W: Halo formation on top, microlonies on bottom
A. baumannii = experiment: MIC (broth microdilution); format: cell-based, Acinetobacter baumannii
Description: as §1, §2

B. subtilis [13] = experiment: MIC (broth microdilution); format: cell-based, Bacillus subtilis
In short: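 2-fold dilution series of peptides in 96-well plates, inoculated at about 1×10^5 cfu/mL in MH broth, following NCCLS standards. Plates held 18–24 h at 37 °C; each run repeated 10 times.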

B. subtilis [14] = experiment: Kill or inhibit growth/proliferation; morphology, biofilm and growth disruption (Tables 5, 6); format: cell-based, Bacillus subtilis; set-up: key: A: Peptide aggregates; B: Less hyphal formation; Clumps; Diffuse clumps and small polyps; F: Diffuse growth; H: Thin; I: Growth inhibition; Microcolony formation; Rippled; Small polyps; Thick; W: Halo formation on top, microlonies on bottom
M. luteus = experiment: as above; format: cell-based, Micrococcus luteus; set-up: key: A: Peptide aggregates; B: Less hyphal formation; Clumps; Diffuse clumps and small polyps; F: Diffuse growth; H: Thin; I: Growth inhibition; Microcolony formation; Rippled; Small polyps; Thick; W: Halo formation on top, microlonies on bottom
C. jejuni = experiment: as above; format: cell-based, Campylobacter jejuni; set-up: key: A: Peptide aggregates; B: Less hyphal formation; Clumps; Diffuse clumps and small polyps; F: Diffuse growth; H: Thin; I: Growth inhibition; Microcolony formation; Rippled; Small polyps; Thick; W: Halo formation on top, microlonies on bottom
[15] = test system: BHK-21 (ATCC CRL-10) fibroblasts; experiment: Cytotoxicity, Promega CellTiterGlo assay; format: cell-based, hamster; conditions: BHK, at either 5 min or 24 h, with or without light
Description: Streptococcus oralis ATCC 10557, Streptococcus gordonii (Challis), Streptococcus sanguinis (NY101), Streptococcus mitis ATCC 903, Streptococcus salivarius ATCC 13419 and S. mutans wild-type UA140 and JM11 (spectinomycin-resistant) strains were grown in Todd-Hewitt (TH) broth 37° C. in an anaerobic atmosphere of 80% N2, 10% CO2, and 10% H2. BHK-21 (ATCC CRL-10) fibroblasts were propagated in DMEM with 10% FBS, 1 mM sodium pyruvate, 100 units/mL penicillin G, and 100 μg/mL streptomycin at 37° C. with 5% CO2. Cells were detached with 0.25% trypsin and subcultured as recommended by the supplier.
The effect of RB and C16-RB on […] fibroblasts was ascertained by utilizing the Promega CellTiterGlo assay, as described by the manufacturer. Briefly, fibroblasts were grown to confluence, detached, and seeded to ˜5,000 cells per well in a 96-well opaque walled, clear bottom 96-well plate (Nunc International). For long-term dark toxicity, cells were allowed to attach to for 18 h before the culture medium was replaced with medium plus serially-diluted RB or C16-RB (200 μM to 390 nM) or medium alone. After 18-24 h, equal volume Cell Titer Glo reagent was added to each well and mixed. Luciferace activity was then quantified to measure cell viability (Varian Fluorometer in Biolumenescence mode). To measure cytotoxicity after RB or C16-RB light exposure, cells were seeded at ˜10,000 cells per well and allowed to attach for 4 h. Cell growth medium was then replaced with RB or C16-RB containing medium, prior to exposure (a single well at a time) with blue light (400 mW/cm^2) suspended ˜3 cm from the well bottom. After exposure, cultures were disrupted with Cell Titer Glo and luciferase activity quantitated as above.

S. mutans [16] = experiment: Anti-S. mutans STAMP activity in vitro, also in formulations; format: cell-based, Streptococcus mutans
E. coli [17] = experiment: Kill or inhibit growth/proliferation; morphology, biofilm and growth disruption (Tables 5, 6); format: cell-based, Escherichia coli; set-up: key: A: Peptide aggregates; B: Less hyphal formation; Clumps; Diffuse clumps and small polyps; F: Diffuse growth; H: Thin; I: Growth inhibition; Microcolony formation; Rippled; Small polyps; Thick; W: Halo formation on top, microlonies on bottom

Compound: CC[C@H](C)[C@H](NC(=O)[C@H](Cc1ccccc1)NC(=O)CCCCCCCNC(=O)[C@H](CCCCNC(=O)CNC(=O)CNC(=O)CNC(=O)[C@H](C)NC(=O)[C@H](CCC(=O)O)NC(=O)[C@H](CC(N)=O)NC(=O)[C@H](C)NC(=O)[C@H](C)NC(=O)[C@@H](N)CC(=O)O)NC(=O)CNC(=O)CNC(=O)CNC(=O)[C@H](CCCNC(=N)N)NC(=O)[C@H](CC(N)=O)NC(=O)[C@H](CC(C)C)NC(=O)[C@H](Cc1ccccc1)NC(=O)[C@H](CCCNC(=N)N)NC(=O)[C@H](Cc1ccccc1)NC(=O)[C@H](Cc1ccccc1)NC(=O)[C@@H](NC(C)=O)[C@@H](C)O)C(=O)N[C@@H](CCCNC(=N)N)C(=O)N[C@@H](CCCCN)C(=O)N[C@@H](Cc1ccccc1)C(=O)N[C@@H](CC(C)C)C(=O)N[C@@H](CCCCN)C(=O)N[C@@H](CCCCN)C(=O)N[C@@H](Cc1c[nH]c2ccccc12)C(=O)N[C@@H](CC(C)C)C(=O)N[C@@H](CC(C)C)C(N)=O [M8(BL)-20] (I: Ac-TFFRFLNRGGGK[Aoc]FIRKFLKKWLL-NH2 / II: H-DAANEAGGG; amide I:12-II:C)
- bacterial growth (OD600) after treatment (S. mutans [1]): effectively retarded
- recoverable (surviving) cfu/mL ([2]; E. coli in mixed culture): not affected or affected to a lesser extent
- recoverable (surviving) cfu/mL ([2]; P. aeruginosa in mixed culture): not affected or affected to a lesser extent
- recoverable (surviving) cfu/mL ([2]; S. epidermidis in mixed culture): not affected or affected to a lesser extent
- recoverable (surviving) cfu/mL ([2]; S. mutans in mixed culture): greatly reduced compared to input cfu/mL

Compound: FELVDWLETNLGKILKSKSA-NH2 [PF-522]
- MIC (C. difficile): C. difficile, 25 μM
- Organism, effect (S. pneumoniae [3]): S. pneumoniae (H)
- Target(s) ([4]; microorganism(s) the targeting peptide binds, peptide binding conducted in aqueous buffers varied by peptide solubility): S. epidermidis; also recorded: E. coli; also recorded: P. aeruginosa; also recorded: S. pneumoniae; also recorded: E. faecalis
- Activities (microorganisms): G B M

Compound: FESKILNASKELDKEKKVNTALSFNSHQDFAKAYQNGKI [PF-606]
- MIC (S. mutans [5]): S. mutans, 50 μM
- MIC (MRSA [6]): MRSA , 50 μM
- MIC (S. epidermidis [7]): S. epidermidis, 50 μM
- MIC (E. coli [8]): E. coli, 50 μM
- MIC (S. pneumoniae [9]): S. pneumoniae, 50 μM
- Organism, effect (MRSA [10]): MRSA (I)
- Organism, effect (S. epidermidis [11]): S. epidermidis (I)
- Organism, effect (S. mutans [12]): S. mutans (I)
- Organism, effect (S. pneumoniae [3]): S. pneumoniae (H)
- Organism, effect (C. albicans): C. albicans (B)
- Activities (microorganisms): G M

Compound: MGIIAGIIKFIKGLIEKFTGK [PF-006]
- MIC (MRSA [6]): MRSA , 50 μM
- MIC (A. baumannii): A. baumannii, 50 μM
- MIC (B. subtilis [13]): B. subtilis, 25 μM
- Organism, effect (B. subtilis [14]): B. subtilis (I)
- Organism, effect (M. luteus): M. luteus (A)
- Organism, effect (MRSA [10]): MRSA (I)
- Organism, effect (S. epidermidis [11]): S. epidermidis (D)
- Organism, effect (S. pneumoniae [3]): S. pneumoniae (R)
- Organism, effect (C. jejuni): C. jejuni (D)
- Target(s) ([4]; microorganism the targeting peptide binds, binding in aqueous buffers varied by peptide solubility): S. epidermidis and M. luteus and E. coli and P. aeruginosa and MRSA and E. faecalis and C. jeikeium and C. jejuni
- Activities (microorganisms): G B M

Compound: Melittin B
- IC50 [15]: < 1560 nM

Compound: TFFRLFNRSFTQALGKGGGKNLRIIRKGIHIIKKY* (not fully specified (C-terminus); printed as TFFRLFNRSFTQALGKGGGKNLRIIRKGIHIIKKY*) [Peptide C16G2]
- PBS strength at activity optimum (S. mutans [16]; PBS formulations 0.5× to about 2.5× PBS): about 1 × PBS
- anti-S. mutans activity (S. mutans [16]; phosphate buffered saline (PBS) formulation): active
- anti-S. mutans activity (S. mutans [16]; water-based salt-free buffers and nanoemulsions): substantially inactive

Compound: TKKIELKRFVDAFVKKSYENYILERELKKLIKAINEELPTK [PF-600]
- MIC (E. coli [8]): E. coli, 50 μM
- MIC (S. pneumoniae [9]): S. pneumoniae, 50 μM
- Organism, effect (M. luteus): M. luteus (C)
- Organism, effect (MRSA [10]): MRSA (M)
- Organism, effect (S. epidermidis [11]): S. epidermidis (C)
- Organism, effect (S. mutans [12]): S. mutans (S)
- Organism, effect (S. pneumoniae [3]): S. pneumoniae (R)
- Organism, effect (E. coli [17]): E. coli (H)
- Activities (microorganisms): G B M
